Here are results for one molecule from US20110008802A1, “TNFalpha GENE EXPRESSION AS A BIOMARKER OF SENSITIVITY TO ANTAGONISTS OF INHIBITOR OF APOPTOSIS PROTEINS” (TETRALOGIC PHARMACEUTICALS CORP., priority 2007, published 2011).

For data set [1], the system named is OVCAR-8 cells. Put plainly: MTT assay of compound C with or without TNFα blocking antibody, OVCAR-8 cells. The format is cell-based, human. The note with it: compound C+anti-TNFα antibody (MAB610) vs compound C alone, 72 hrs. As to the method: (§1) We have previously observed that our compounds promote rapid cIAP-1 degradation. Therefore, we hypothesized that degradation of cIAP-1 may result in autocrine activation of the death-receptor pathway by TNFα. To test this, we used TNFα blocking antibody in an MTT assay. Briefly, indicated ovarian cancer cell lines were seeded into 96-well cell culture plates at a density of 5,000 cells per well. The next day, anti-TNFα antibody (MAB610, R&D Systems, Minneapolis, Minn.) was added to cells at a final concentration of 10 µg/mL and allowed to incubate for 1 hr at 37° C., 5% CO2. Following incubation, a range of concentrations of the cIAP antagonist compound C was added to cells. Cells were incubated in the presence of compound C+anti-TNFα antibody or in the presence of compound C alone as a control for an additional 72 hrs. Following 72 hr incubation, MTT reagent (3-(4,5-dimethylthiazolyl-2)-2,5-diphenyltetrazolium bromide; SIGMA, St. Louis, Mo.) was added to all wells at a final concentration of 1 mg/mL and allowed to incubate for 2 hrs at 37° C., 5% CO2. Following a 2 hr incubation, all media was removed from wells and […] DMSO was added to solubilize formazan crystals. After a brief incubation at room temp on a microplate shaker, absorbance was measured at 570 nm using a Victor^2V fluorescent microplate reader (Perkin-Elmer, Turku, Finland). […]
Background: Tetrazolium dyes change colour on reduction, which living cells bring about.

For data set [2], the system named is SKOV3 cells. Put plainly: MTT assay of compound C with or without TNFα blocking antibody, SKOV3 cells. The class given is cell-based, human. The note with it: compound C+anti-TNFα antibody (MAB610) vs compound C alone, 72 hrs. As to the method:
as §1

For `CN[C@@H](C)C(=O)N[C@H](C(=O)N1C[C@@H](O)C[C@H]1CC1=C(C2=C(C[C@@H]3C[C@H](O)CN3C(=O)[C@@H](NC(=O)[C@H](C)NC)[C@@H](C)OC)c3ccc(F)cc3C2)Cc2cc(F)ccc21)[C@@H](C)OC` [compound C], in data set [1], the “effect of anti-TNFα antibody on cIAP antagonist induced cytotoxicity (CC50 curve, FIG. 1)” value was “abrogates cIAP antagonist induced cytotoxicity”. In data set [2], the “effect of anti-TNFα antibody on cIAP antagonist induced cytotoxicity (CC50 curve, FIG. 2)” value was “abrogates cIAP antagonist induced cytotoxicity”.
